Consider 8 compounds from article PMC7684578, “Isopedopeptins A–H: Cationic Cyclic Lipodepsipeptides from Pedobacter cryoconitis UP508 Targeting WHO Top-Priority Carbapenem-Resistant Bacteria” (ACS Chemical Biology, 2020).

Structures are written as SMILES. Converted amounts (≈) assume the structure as drawn. Starred links: 1 amine or outer side, 2 acyl side, 3 side chain; linkers in the order of their positions; H or OH if unused. Positions of bridges follow the written chain, without caps; N, C: chain ends. Non-standard residues stand in square brackets, D forms with d. Residues, ends and D or L forms follow the SMILES beside them. X4 = CC(C)CCC=CCCC[C@H](CC(=O)[*:1])O[*:2]; X6 = CC(C)CCCCC=CC[C@H](CC(=O)[*:1])O[*:2]; X5 = CC(C)CCCCCCC[C@H](CC(=O)[*:1])O[*:2]; X3 = CC(C)CCCCC[C@H](CC(=O)[*:1])O[*:2]; X7 = CCCCCCC=CC[C@H](CC(=O)[*:1])O[*:2]; X2 = CCCCCCC[C@H](CC(=O)[*:1])O[*:2]; Val(3-OH) = CC(C)(O)[C@H](N)C(=O)O; X1 = C/C=C(/N[*:1])C(=O)[*:2]; Dab = NCC[C@H](N)C(=O)O; Dap = NC[C@H](N)C(=O)O

This test concerns K. pneumoniae LMG20218. The test can be described thus: MIC, broth micro-dilution, primary panel. The class given is cell-based, Klebsiella pneumoniae. Conditions: for MIC: Klebsiella pneumoniae, LMG20218, ESBL; for MIC K. pneumoniae LMG20218: ESBL. Here is the method:
Isopedopeptin E (5): off-white solid; [α] D20 –36° (c 0.3 in methanol); UV (MeOH) λ max (log10 ε) 240 (3.8); 1H NMR (DMSO-d 6, 600 MHz), see Table S5; 13C NMR (DMSO-d 6, 150 MHz), see Table […]
Isopedopeptin F (6): off-white solid; [α] D20 –32° (c 0.05 in methanol); UV (MeOH) λ max (log10 ε) 240 (3.8); 1H NMR (DMSO-d 6, 600 MHz), see Table S6; 13C NMR (DMSO-d 6, 150 MHz), see Table […]
Isopedopeptin G (7): off-white solid; [α] D20 –49° (c 0.1 in methanol); UV (MeOH) λ max (log10 ε) 240 (4.0); 1H NMR (DMSO-d 6, 600 MHz), see Table S7; 13C NMR (DMSO-d 6, 150 MHz), see Table […]
Isopedopeptin H (8): off-white solid; [α] D20 –56° (c 0.2 in methanol); UV (MeOH) λ max (log10 ε) 240 (4.0); 1H NMR (DMSO-d 6, 600 MHz), see Table S8; 13C NMR (DMSO-d 6, 150 MHz), see Table […]
Minimal Inhibitory Concentration (MIC) against the primary panel of microorganisms.
The MIC for compounds 1–8 was measured by means of a broth micro-dilution method in 96-wells microtiter plates with the addition of E. coli LMG15862, LMG1041 T, E. cloacaeA. baumannii […]
H-29 and A. fumigatus J7, as test organisms. The test media were AM3 Broth (BD Difco Ltd) mixed with phosphate buffered saline (PBS, Amresco LLC, Solon, USA) in 1:4 ratio (E. coli, A. baumannii, E. cloacae, K. pneumoniae and P. aeruginosa), AM3 Broth mixed with PBS in 1:1 ratio (S. aureus), ME (A. fumigatus) and ISP2 (C. albicans). Prior to MIC determination, the cell concentration of tested bacterial/fungal pathogens was adjusted to ≅ 4 × 10^5 CFU/mL (acceptable range 2 – 6 × 10^5 CFU/mL). Cell concentration was confirmed by colony counting after diluting and plating the respective bacterial pathogen on VPA plates [VPA, 10 g Vegetable Peptone Broth (Oxoid Ltd., Basingstoke,UK), 15 g Bacto Agar (Difco Ltd, Tyrone) in 1 L deionised water] directly after each of MIC-tests. The cells of C. albicans were plated on ISP2 agar plates [ISP2, 15 g Bacto Agar (Difco Ltd) in 1 L deionised water] and respectively spores of A. fumigatus were plated on MEA plates.
Plates were, subsequently, incubated at 37 °C in the dark, and viable colonies counted after 16 to 24 h.
To estimate MIC values (concentration range between 0.05 and 50 µg/mL), solutions of the tested compounds (100, 10 and 1 and if needed 0.1 µg/mL in MeOH) were dispensed into wells of microtiter plate(s) and the solvent was evaporated in a fume-hood. Subsequently, suspensions of pathogen cells in the appropriate medium were dispensed to the wells of microtiter plates and the growth of pathogens were observed after 16 to 20 h of incubation at 37 °C in the dark. Positive controls were the respective pathogen cells suspended in untreated sterile media without addition of compounds(s) and negative controls were the media only. MIC values were defined as the lowest concentration of each compound with no visible growth of pathogen. All MIC tests were performed in triplicate and […]
MIC determination for compound 2 against an extended panel of bacterial strains.
Compound 2 was evaluated against a panel of Gram-negative bacteria (Hughes strain collection), including: A. baumannii ATCC 19606, wild-type; BM4454, multidrug-resistant clinical isolate; BM4652, efflux-defective derivative of BM4454; CH9622, colistin-resistant clinical isolate; E. coli ATCC 25922, wild-type; CH3130, efflux-defective ΔtolC mutant isogenic to ATCC 25922; D22, a drug-hypersensitive lpxC mutant of E. coli; CH3491, multidrug-resistant clinical isolate; CH9623 and CH9624, colistin-resistant clinical isolates carrying mcr-1; K. pneumoniae ATCC 13833, wild-type; […]
clinical isolate; CH9625 and CH9626, colistin-resistant clinical isolates; P. aeruginosa PAO1, wild-type; PAO750, efflux-defective mutant isogenic to PAO1. The in vitro antimicrobial activity of each compound was determined by measuring the MIC value using the broth micro-dilution technique in cation-adjusted Mueller-Hinton II broth (Becton-Dickinson, 212322) according to EUCAST and CLSI guidelines. Each compound prepared in MHII medium was dispensed into a 96-well round- […]
A general note: Broth dilution looks for growth in wells or tubes with falling amounts of substance.

As usually defined, the MIC is the least concentration at which growth counts as inhibited. High values mean a less susceptible organism, low ones a more susceptible organism. As for `C/C=C1/NC(=O)[C@H](CCN)NC(=O)[C@H](CC(C)C)NC(=O)[C@H](CN)NC(=O)C[C@@H](CCCCCCC)OC(=O)[C@H](CC(=O)O)NC(=O)[C@H](C(C)C)NC(=O)[C@@H](Cc2ccccc2)NC(=O)[C@H](CN)NC(=O)[C@H]([C@@H](C)O)NC1=O` [Compound 4, isopedopeptin D] ([Dap]L[Dab][X1]T[Dap][dF]VD; linker N-C via X2), the MIC is above 32 µg/mL.

Consider `C/C=C1/NC(=O)[C@H](CCN)NC(=O)[C@H](CC(C)C)NC(=O)[C@H](CN)NC(=O)C[C@@H](CCCCCCCC(C)C)OC(=O)[C@H](CC(=O)O)NC(=O)[C@H](C(C)(C)O)NC(=O)[C@@H](Cc2ccccc2)NC(=O)[C@H](CN)NC(=O)[C@H]([C@@H](C)O)NC1=O` [Compound 6, Isopedopeptin F] ([Dap]L[Dab][X1]T[Dap][dF][Val(3-OH)]D; linker N-C via X5), for which the lowest concentration to inhibit growth (MIC) was 32 µg/mL (≈ 27.6 µM). On the same count and under the same terms, the same measure for `C/C=C1/NC(=O)[C@H](CCN)NC(=O)[C@H](CC(C)C)NC(=O)[C@H](CN)NC(=O)C[C@@H](CCCCCC(C)C)OC(=O)[C@H](CC(=O)O)NC(=O)[C@H](C(C)C)NC(=O)[C@@H](Cc2ccccc2)NC(=O)[C@H](CN)NC(=O)[C@H]([C@@H](C)O)NC1=O` [Compound 5, Isopedopeptin E] ([Dap]L[Dab][X1]T[Dap][dF]VD; linker N-C via X3): 32 µg/mL (≈ 28.7 µM); for `C/C=C1/NC(=O)[C@H](CCN)NC(=O)[C@H](CC(C)C)NC(=O)[C@H](CN)NC(=O)C[C@@H](CC=CCCCCC(C)C)OC(=O)[C@H](CC(=O)O)NC(=O)[C@H](C(C)C)NC(=O)[C@@H](Cc2ccccc2)NC(=O)[C@H](CN)NC(=O)[C@H]([C@@H](C)O)NC1=O` [Compound 8, Isopedopeptin H] ([Dap]L[Dab][X1]T[Dap][dF]VD; linker N-C via X6): 16 µg/mL (≈ 14 µM). For the compound `C/C=C1/NC(=O)[C@H](CCN)NC(=O)[C@H](CC(C)C)NC(=O)[C@H](CN)NC(=O)C[C@@H](CCCC=CCCC(C)C)OC(=O)[C@H](CC(=O)O)NC(=O)[C@H](C(C)C)NC(=O)[C@@H](Cc2ccccc2)NC(=O)[C@H](CN)NC(=O)[C@H]([C@@H](C)O)NC1=O` [Compound 7, Isopedopeptin G] ([Dap]L[Dab][X1]T[Dap][dF]VD; linker N-C via X4), the “MIC K. pneumoniae LMG20218” value was 16 µg/mL (≈ 14 µM) and the MIC was 8 to 16 µg/mL (≈ 7.01 to 14 µM). With `C/C=C1/NC(=O)[C@H](CCN)NC(=O)[C@H](CC(C)C)NC(=O)[C@H](CN)NC(=O)C[C@@H](CCCCCC(C)C)OC(=O)[C@H](CC(=O)O)NC(=O)[C@H](C(C)(C)O)NC(=O)[C@@H](Cc2ccccc2)NC(=O)[C@H](CN)NC(=O)[C@H]([C@@H](C)O)NC1=O` [Compound 1, cyclo(3-hydroxy-9-methyldecanoyl-DAPA1-Leu-DABA-ABA-Thr-DAPA2-Phe-OHVal-Asp)] ([Dap]L[Dab][X1]T[Dap][dF][Val(3-OH)]D; linker N-C via X3), the “MIC K. pneumoniae LMG20218” value is 8 µg/mL (≈ 7.07 µM) and the minimum inhibitory concentration (MIC) fell in the range of 8 to 16 µg/mL (≈ 7.07 to 14.1 µM).

With `C/C=C1/NC(=O)[C@H](CCN)NC(=O)[C@H](CC(C)C)NC(=O)[C@H](CN)NC(=O)C[C@@H](CCCCCCC)OC(=O)[C@H](CC(=O)O)NC(=O)[C@H](C(C)(C)O)NC(=O)[C@@H](Cc2ccccc2)NC(=O)[C@H](CN)NC(=O)[C@H]([C@@H](C)O)NC1=O` [Compound 2, isopedopeptin B] ([Dap]L[Dab][X1]T[Dap][dF][Val(3-OH)]D; linker N-C via X2), the “MIC K. pneumoniae LMG20218” value was 16 µg/mL (≈ 14.3 µM) and the MIC is 8 to 16 µg/mL (≈ 7.16 to 14.3 µM). For `C/C=C1/NC(=O)[C@H](CCN)NC(=O)[C@H](CC(C)C)NC(=O)[C@H](CN)NC(=O)C[C@@H](CC=CCCCCCC)OC(=O)[C@H](CC(=O)O)NC(=O)[C@H](C(C)(C)O)NC(=O)[C@@H](Cc2ccccc2)NC(=O)[C@H](CN)NC(=O)[C@H]([C@@H](C)O)NC1=O` [Compound 3, isopedopeptin C] ([Dap]L[Dab][X1]T[Dap][dF][Val(3-OH)]D; linker N-C via X7), the MIC worked out at 32 µg/mL (≈ 28 µM).
